Here are results for two molecules from US20180155386A1, “PROGESTERONE ANTAGONISTS” (Evestra, Inc., priority 2011, published 2018).

Assay [1] relates to uterine weight of non-pregnant guinea pigs. Nature of the assay: Uterine weights of guinea pigs. To be noted: 10 mg s.c. from day 10 of cycle; sacrifice day 18; untreated guinea pig 1.2 g; higher than 1.2 g indicates pure progesterone antagonistic activity. In kind it is in vivo. On the procedure:
3 Non-pregnant guinea pigs in the luteal phase of the cycle will be treated with 10 mg of the compound subcutaneously beginning on day 10 of the cycle. Animals were sacrificed on day 18 after the start of the treatment and the uterine weights were obtained at the time of sacrifice. Comparisons will be made to onapristone-treated animals at 10 mg/animal/day s.c

A further assay deals with T1, glucocorticoid receptor (Homo sapiens, UniProt P04150).
T1 sequence (P04150 1-777): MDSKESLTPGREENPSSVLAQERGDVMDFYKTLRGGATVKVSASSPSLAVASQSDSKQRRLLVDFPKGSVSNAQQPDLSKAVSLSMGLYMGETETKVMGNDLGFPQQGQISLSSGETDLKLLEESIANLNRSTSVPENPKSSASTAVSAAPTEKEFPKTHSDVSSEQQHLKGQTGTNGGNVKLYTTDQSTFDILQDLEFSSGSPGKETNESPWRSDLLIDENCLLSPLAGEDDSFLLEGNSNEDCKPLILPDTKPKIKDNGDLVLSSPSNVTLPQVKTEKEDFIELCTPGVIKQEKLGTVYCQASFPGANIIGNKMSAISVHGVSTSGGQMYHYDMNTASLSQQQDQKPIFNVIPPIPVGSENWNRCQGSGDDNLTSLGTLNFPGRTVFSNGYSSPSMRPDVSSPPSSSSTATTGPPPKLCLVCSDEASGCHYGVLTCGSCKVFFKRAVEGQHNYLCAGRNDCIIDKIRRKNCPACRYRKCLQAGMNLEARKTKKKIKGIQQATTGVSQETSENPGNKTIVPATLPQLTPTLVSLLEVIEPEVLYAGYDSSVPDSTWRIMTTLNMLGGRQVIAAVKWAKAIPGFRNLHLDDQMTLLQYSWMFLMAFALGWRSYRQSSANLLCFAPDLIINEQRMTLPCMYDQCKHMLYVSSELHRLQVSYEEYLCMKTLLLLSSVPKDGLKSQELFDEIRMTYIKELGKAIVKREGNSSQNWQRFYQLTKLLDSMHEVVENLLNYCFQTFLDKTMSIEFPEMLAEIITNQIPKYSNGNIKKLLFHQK
To be noted: background statement in words; cited from earlier work.

In another assay the target is T2, progesterone receptor (Homo sapiens, UniProt P06401).
T2 sequence (P06401 1-933): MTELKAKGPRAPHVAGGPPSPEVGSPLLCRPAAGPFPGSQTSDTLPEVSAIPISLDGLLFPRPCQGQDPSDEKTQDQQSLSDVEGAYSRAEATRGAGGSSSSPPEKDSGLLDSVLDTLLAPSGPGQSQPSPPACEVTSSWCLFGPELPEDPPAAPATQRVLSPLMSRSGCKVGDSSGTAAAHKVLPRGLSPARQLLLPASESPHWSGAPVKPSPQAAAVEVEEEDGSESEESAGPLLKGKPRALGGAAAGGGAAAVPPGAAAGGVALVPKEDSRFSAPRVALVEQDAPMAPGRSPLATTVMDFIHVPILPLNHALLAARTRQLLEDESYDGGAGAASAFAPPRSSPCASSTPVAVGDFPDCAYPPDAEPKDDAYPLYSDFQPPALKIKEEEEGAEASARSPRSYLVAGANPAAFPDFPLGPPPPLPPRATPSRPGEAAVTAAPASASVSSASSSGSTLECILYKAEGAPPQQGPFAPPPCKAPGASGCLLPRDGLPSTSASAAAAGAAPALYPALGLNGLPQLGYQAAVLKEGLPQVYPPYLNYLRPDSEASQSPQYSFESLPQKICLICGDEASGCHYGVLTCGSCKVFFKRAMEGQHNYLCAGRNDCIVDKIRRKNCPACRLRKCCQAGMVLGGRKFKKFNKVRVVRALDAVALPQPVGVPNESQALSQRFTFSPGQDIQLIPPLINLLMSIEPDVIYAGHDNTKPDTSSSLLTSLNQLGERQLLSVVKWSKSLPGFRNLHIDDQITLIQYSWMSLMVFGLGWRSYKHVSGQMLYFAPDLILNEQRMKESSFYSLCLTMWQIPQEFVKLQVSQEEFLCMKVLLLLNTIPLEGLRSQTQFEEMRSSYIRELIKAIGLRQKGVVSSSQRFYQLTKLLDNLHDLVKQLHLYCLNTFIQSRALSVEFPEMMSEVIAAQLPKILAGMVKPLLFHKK
To be noted: background statement in words; cited from earlier work.

The subject of assay [2] is human breast cancer cell line T47D. Nature of the assay: In vitro antiproliferative activity in human breast cancer cell line T47D (MTT). As to conditions: 168 h, T47D cells, 7 days after cell seeding. In kind it is cell-based. The protocol: Cells from frozen stock were expanded in T75 cell culture flasks. For the experiment, cells in the logarithmic growth phase (70% confluent) were cultivated for 3 day without estradiol and then washed with PBS, detached by trypsination and suspended in 5 ml of fresh RPMI-1640 medium. Cells were centrifuged for 5 min at 1000 rpm and the pellet was resuspended in RPMI-1640 medium.
Cells were seeded in 96-well plates with a density of 5000 cells/well/in 0.18 mL RPMI-1640 medium. Cells were allowed to attach for 24 h. Visual control for viability at 24 h and cell culture medium change. At this time point, compounds were added in 20 μl to the final concentration. After 3 days medium and compounds where changed again. Finally, 7 days after cell seeding, 20 μl MTT-solution was added to each well and 4 h later the formed tetrazolium salt was measured with a photometer.

Assay [3] deals with T3, progesterone receptor-LBD-UAS-bla HEK 293T cells (Homo sapiens, UniProt P06401).
T3 construct: host or cells: HEK 293T
T3 sequence (P06401 679-913 limits assumed): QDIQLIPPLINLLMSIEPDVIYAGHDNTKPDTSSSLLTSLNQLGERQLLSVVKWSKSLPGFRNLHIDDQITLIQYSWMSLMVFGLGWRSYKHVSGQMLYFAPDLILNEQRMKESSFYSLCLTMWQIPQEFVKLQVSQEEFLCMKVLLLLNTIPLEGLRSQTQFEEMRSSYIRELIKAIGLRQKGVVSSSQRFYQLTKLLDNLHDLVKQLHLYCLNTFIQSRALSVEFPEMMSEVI
Nature of the assay: Progesterone Antagonist Screen (GeneBLAzer Beta-lactamase reporter, activated by control agonist R5020). In kind it is cell-based. As to conditions: values relative to RU486, which is 100%; HEK 293T reporter cells, agonist R5020 at EC80. On the procedure:
Determination of the agonist/antagonist nature of the test compounds was carried out using Invitrogen's SelectScreen™ Cell-based nuclear receptor profiling service which uses the GeneBLAzer® Beta-lactamase reporter technology. Basically this assay uses a Beta-lactamase cDNA under transcriptional control of an Upstream Activator Sequence (UAS). The UAS is activated by the GAL4 transcription factor DNA binding domain (DBD), which is expressed as a fusion protein with the target receptor ligand binding domain (LBD). Upon ligand binding, the GAL4(DBD)-NR(LDB) binds to the UAS, which controls transcription of Beta-lactamase. Beta-lactamase cleaves a special engineered fluorescent substrate which results in a change in the measured fluorescence wavelength.
The generalized protocol used for the Progesterone Antagonist Screen, activated by control Agonist R5020 is as follows:
The progesterone receptor-LBD-UAS-bla HEK 293T cells are thawed and prepared as described above for the Agonist screen. 4 μL of a 10× serial dilution of control antagonist RU-486 (starting concentration, 100 nM) or test compounds are added to appropriate wells of a TC-Treated assay plate. 32 μL of cell suspension is added to the wells which is then pre-incubated at 37° C./5% CO2 in a humidified incubator with test compounds and control antagonist titration for 30 minutes. 4 μL of a 10× control agonist (see above) at the predetermined EC80 concentration is added to wells containing the control antagonist or test compounds. The plate is incubated for 16-24 hours at 37° C./5% CO2 in a humidified incubator. 8 μL of 1 μM Substrate Loading Solution is added to each well and the plate is incubated for 2 hours at room temperature. The plate is then read on a fluorescence plate reader (Tecan Safire).

pIC50: −log10 of the molar value.

For orientation: pIC50 means the negative decadic logarithm of the IC50, by convention in mol/L. Usually Emax stands for the greatest response seen or fitted, relative to the assay's reference.

For the molecule `CC#C[C@]1(O)CC[C@H]2[C@@H]3CCC4=CC(=O)CCC4=C3[C@@H](c3ccc(N(C)C)cc3)C[C@@]21C` [RU 486, Mifepristone], in assay [1], the “Uterine Weights of Guinea Pigs Treated with antiprogestins (grams)” value is listed as 1.81 grams. Also, at glucocorticoid receptor, the “antiglucocorticoid effects / glucocorticoid receptor antagonism” value is reported as “overt glucocorticoid receptor antagonism”. Further, the “antiprogestagenic activity / progesterone antagonism” value at progesterone receptor is reported as “potent progesterone antagonist”.
`CC(=O)c1ccc([C@H]2C[C@@]3(C)[C@@H](CC[C@@]3(O)C(F)(F)C(F)(F)F)[C@@H]3CCC4=CC(=O)CCC4=C32)cc1` [ZK 230211, Lonaprisan, reference compound] had a pIC50 in assay [2] of 9.52. Also, the “antiglucocorticoid effects / glucocorticoid receptor antagonism” value on glucocorticoid receptor was “only marginal antiglucocorticoid effects”. Moreover, at progesterone receptor, the “antiprogestagenic activity / progesterone antagonism” value was “high antiprogestagenic activity”. In assay [3], this molecule yielded an Emax of 81%.
